Reference: patent publication US11020395B2, “Cycloalkyl substituted triazole compounds as agonists of the APJ receptor” (AMGEN INC., priority 2016, dated 2021)

Target: human APJ receptor (Homo sapiens (Human), UniProt P35414)
Assay: [35S]GTPγS binding assay on membranes from CHO cells stably expressing human APJ receptor
Type: biochemical
Settings: Activity hAPJ SPA EC50 IP, [35S]GTPγS SPA
Procedure, shortened: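 Membranes from CHO cells stably expressing FLAG-tagged human APJ were incubated with [35S]GTPγS in buffer with optimized GDP, MgCl2 and NaCl, 90 min at RT. EC50 values derived by non-linear regression, averaged over several independent experiments.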

human APJ receptor, sequence (P35414 whole entry): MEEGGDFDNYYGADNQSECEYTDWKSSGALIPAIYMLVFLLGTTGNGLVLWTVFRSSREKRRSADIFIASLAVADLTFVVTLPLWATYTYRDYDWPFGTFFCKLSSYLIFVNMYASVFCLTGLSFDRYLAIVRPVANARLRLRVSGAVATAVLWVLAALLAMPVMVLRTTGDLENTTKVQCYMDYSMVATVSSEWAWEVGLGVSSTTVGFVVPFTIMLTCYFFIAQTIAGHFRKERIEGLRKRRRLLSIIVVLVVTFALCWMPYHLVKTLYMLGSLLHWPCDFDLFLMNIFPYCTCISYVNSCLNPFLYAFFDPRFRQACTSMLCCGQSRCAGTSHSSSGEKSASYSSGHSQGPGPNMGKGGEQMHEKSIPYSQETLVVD

`COc1cccc(OC)c1-n1c(NS(=O)(=O)[C@@H](C)[C@H](OC)c2ncc(C)cn2)nnc1C1CC1` [Example 16.0, (1R,2S)—N-(5-Cyclopropyl-4-(2,6-dimethoxyphenyl)-4H-1,2,4-triazol-3-yl)-1-methoxy-1-(5-methyl-2-pyrimidinyl)-2-propanesulfonamide] was tested, and the EC50 was 22 nM.

Same assay, conditions: [35S]GTPγS SPA, read-out: Activity hAPJ SPA EC50 IP

First: COc1ncnc(OC)c1-n1c(NS(=O)(=O)[C@@H](C)[C@H](OC)c2ncc(C)cn2)nnc1C1CCC1 [Example 90.0, (1R,2S)-N-(5-cyclobutyl-4-(4,6-dimethoxypyrimidin-5-yl)-4H-1,2,4-triazol-3-yl)-1-methoxy-1-(5-methylpyrimidin-2-yl)propane-2-sulfonamide]
Second: COc1ncnc(OC)c1-n1c(NS(=O)(=O)[C@@H](C)[C@H](OC)c2ncc(C)cn2)nnc1C1CC2(CC2)C1 [Example 200.0]
The EC50 of the first is 2-fold higher: 9.2 nM for the first, 4.6 nM for the second. The second is the more potent here.

Compared with “(1S,2S)-N-(4-(2,6-dimethoxyphenyl)-5-(trans-3-methoxycyclobutyl)-4H-1,2,4-triazol-3-yl)-1-(5-methyl-2-pyrimidinyl)-1-(2-propanyloxy)-2-propanesulfonamide or (1S,2S)-N-(4-(2,6-dimethoxyphenyl)-5-(cis-3-methoxycyclobutyl)-4H-1,2,4-triazol-3-yl)-1-(5-methyl-2-pyrimidinyl)-1-(2-propanyloxy)-2-propanesulfonamide [Example 226.0]”, `COc1ncnc(OC)c1-n1c(NS(=O)(=O)[C@@H](C)[C@H](OC)c2ncc(Cl)cn2)nnc1[C@H]1CC[C@@H](C(F)F)CC1` (single isomer, unassigned) [Example 144.0, (1R,2S)-1-(5-chloro-2-pyrimidinyl)-N-(5-(cis-4-(difluoromethyl)cyclohexyl)-4-(4,6-dimethoxy-5-pyrimidinyl)-4H-1,2,4-triazol-3-yl)-1-methoxy-2-propanesulfonamide or (1R,2S)-1-(5-chloro-2-pyrimidinyl)-N-(5-(trans-4-(difluoromethyl)cyclohexyl)-4-(4,6-dimethoxy-5-pyrimidinyl)-4H-1,2,4-triazol-3-yl)-1-methoxy-2-propanesulfonamide] is 30-fold higher in EC50: 21 nM for the first, 620 nM for the second. The first is the more potent here.

Going from `COc1ncnc(OC)c1-n1c(NS(=O)(=O)[C@@H](C)[C@H](C)c2ccc(Cl)cn2)nnc1C1CCC1` [Example 87.0, (2S,3R)-3-(5-chloro-2-pyridinyl)-N-(5-cyclobutyl-4-(4,6-dimethoxy-5-pyrimidinyl)-4H-1,2,4-triazol-3-yl)-2-butanesulfonamide] to `COc1ncnc(OC)c1-n1c(NS(=O)(=O)[C@@H](C)[C@H](OC)c2ncc(Cl)cn2)nnc1[C@H]1C[C@@H](F)C1` (single isomer, unassigned) [Example 162.0, (1R,2S)-1-(5-chloropyrimidin-2-yl)-N-(4-(4,6-dimethoxypyrimidin-5-yl)-5-((1s,3R)-3-fluorocyclobutyl)-4H-1,2,4-triazol-3-yl)-1-methoxypropane-2-sulfonamide or (1R,2S)-1-(5-chloropyrimidin-2-yl)-N-(4-(4,6-dimethoxypyrimidin-5-yl)-5-((1r,3S)-3-fluorocyclobutyl)-4H-1,2,4-triazol-3-yl)-1-methoxypropane-2-sulfonamide], the EC50 rises from 2 nM to 14 nM (7-fold). The first is the more potent here.

First: (1R,2S)-1-(5-chloropyrimidin-2-yl)-N-(4-(4,6-dimethoxypyrimidin-5-yl)-5-((R)-spiro[2.2]pentan-1-yl)-4H-1,2,4-triazol-3-yl)-1-methoxypropane-2-sulfonamide or (1R,2S)-1-(5-chloropyrimidin-2-yl)-N-(4-(4,6-dimethoxypyrimidin-5-yl)-5-((S)-spiro[2.2]pentan-1-yl)-4H-1,2,4-triazol-3-yl)-1-methoxypropane-2-sulfonamide [Example 106.0]
Second: COCC(COC)n1c(NS(=O)(=O)[C@@H](C)[C@H](OC)c2ncc(Cl)cn2)nnc1C1CCC1 [Example 95.0, (1R,2S)-1-(5-chloropyrimidin-2-yl)-N-(5-cyclobutyl-4-(1,3-dimethoxypropan-2-yl)-4H-1,2,4-triazol-3-yl)-1-methoxypropane-2-sulfonamide]
The EC50 of the first is 2.3-fold lower: 19 nM for the first, 43 nM for the second. The first is the more potent here.

Going from `CC(C)O[C@@H](c1ncc(Cl)cn1)[C@H](C)S(=O)(=O)Nc1nnc(C2CCC2)n1C1CCOCC1` [Example 211.0, (1S,2S)-1-(5-chloro-2-pyrimidinyl)-N-(5-cyclobutyl-4-(tetrahydro-2H-pyran-4-yl)-4H-1,2,4-triazol-3-yl)-1-(2-propanyloxy)-2-propanesulfonamide] to `COc1cccc(OC)c1-n1c(NS(=O)(=O)[C@@H](C)[C@H](OC)c2ncc(Cl)cn2)nnc1[C@H]1C[C@H](Cl)C1` (single isomer, unassigned) [Example 154.0, (1R,2S)-1-(5-chloropyrimidin-2-yl)-N-(4-(2,6-dimethoxyphenyl)-5-((1r,3S)-3-chlorocyclobutyl)-4H-1,2,4-triazol-3-yl)-1-methoxypropane-2-sulfonamide or (1R,2S)-1-(5-chloropyrimidin-2-yl)-N-(4-(2,6-dimethoxyphenyl)-5-((1s,3R)-3-chlorocyclobutyl)-4H-1,2,4-triazol-3-yl)-1-methoxypropane-2-sulfonamide], the EC50 falls from 420 nM to 0.18 nM (2300-fold). The second is the more potent here.

First: COc1ncnc(OC)c1-n1c(NS(=O)(=O)[C@@H](C)[C@H](OC)c2ncc(Cl)cn2)nnc1[C@H]1C[C@]2(CC2(F)F)C1 (single isomer, unassigned) [Example 205.0, (1R,2S)-1-(5-chloropyrimidin-2-yl)-N-(5-((3R,5s)-1,1-difluorospiro[2.3]hexan-5-yl)-4-(4,6-dimethoxypyrimidin-5-yl)-4H-1,2,4-triazol-3-yl)-1-methoxypropane-2-sulfonamide or (1R,2S)-1-(5-chloropyrimidin-2-yl)-N-(5-((3S,5r)-1,1-difluorospiro[2.3]hexan-5-yl)-4-(4,6-dimethoxypyrimidin-5-yl)-4H-1,2,4-triazol-3-yl)-1-methoxypropane-2-sulfonamide]
Second: COc1cccc(OC)c1-n1c(NS(=O)(=O)[C@@H](C)[C@H](OC)c2ncc(Cl)cn2)nnc1[C@@H]1CC[C@H]1C (single isomer, unassigned) [Example 208.0]
The EC50 of the first is 2-fold higher: 5.5 nM for the first, 2.7 nM for the second.

Going from `COc1cccc(OC)c1-n1c(NS(=O)(=O)[C@@H](C)[C@H](C)c2ncc(Cl)cn2)nnc1C1(c2ccccn2)CC1` [Example 125.0] to `COc1ncnc(OC)c1-n1c(NS(=O)(=O)[C@@H](C)[C@H](C)c2ncc(Cl)cn2)nnc1[C@@H]1CC[C@@H]1C(F)F` (stereo in doubt) [Example 166.0], the EC50 falls from 400 nM to 20 nM (20-fold). The second is the more potent here.

Compared with `COc1cccc(OC)c1-n1c(NS(=O)(=O)[C@@H](C)[C@@H](OC(C)C)c2ncc(C)cn2)nnc1[C@@H]1CCC[C@@H]1OC` (single isomer, unassigned) [Example 234.0], `CO[C@H](c1ncc(Cl)cn1)[C@H](C)S(=O)(=O)Nc1nnc([C@H]2C[C@H](CO)C2)n1C(C)C` (single isomer, unassigned) [Example 136.0, (1R,2S)-1-(5-chloro-2-pyrimidinyl)-N-(5-trans-3-(hydroxymethyl)cyclobutyl)-4-(2-propanyl)-4H-1,2,4-triazol-3-yl)-1-methoxy-2-propanesulfonamide or (1R,2S)-1-(5-chloro-2-pyrimidinyl)-N-(5-(cis-3-(hydroxymethyl)cyclobutyl)-4-(2-propanyl)-4H-1,2,4-triazol-3-yl)-1-methoxy-2-propanesulfonamide] is 270-fold higher in EC50: 12 nM for the first, 3200 nM for the second.

Compared with `COc1ncnc(OC)c1-n1c(NS(=O)(=O)[C@@H](C)[C@H](OC)c2ncc(Cl)cn2)nnc1[C@H]1C[C@H](C)C1` [Example 185.0, (1R,2S)-1-(5-chloro-2-pyrimidinyl)-N-(4-(4,6-dimethoxy-5-pyrimidinyl)-5-(trans-3-methylcyclobutyl)-4H-1,2,4-triazol-3-yl)-1-methoxy-2-propanesulfonamide], `COc1cccc(OC)c1-n1c(NS(=O)(=O)[C@@H](C)[C@H](OC)c2ncc(Cl)cn2)nnc1[C@H]1CC(=O)C1(C)C` (single isomer, unassigned) [Example 196.0, (1R,2S)-1-(5-chloropyrimidin-2-yl)-N-(4-(2,6-dimethoxyphenyl)-5-((R)-2,2-dimethyl-3-oxocyclobutyl)-4H-1,2,4-triazol-3-yl)-1-methoxypropane-2-sulfonamide or (1R,2S)-1-(5-chloropyrimidin-2-yl)-N-(4-(2,6-dimethoxyphenyl)-5-((S)-2,2-dimethyl-3-oxocyclobutyl)-4H-1,2,4-triazol-3-yl)-1-methoxypropane-2-sulfonamide] is 120-fold higher in EC50: 2.7 nM for the first, 330 nM for the second. The first is the more potent here.

First: COc1ncnc(OC)c1-n1c(NS(=O)(=O)[C@@H](C)[C@H](C)c2ncc(C)cn2)nnc1C1CC2(CC2)C1 [Example 202.0]
Second: COc1cccc(OC)c1-n1c(NS(=O)(=O)[C@@H](C)[C@@H](OC(C)C)c2ncc(C)cn2)nnc1[C@H]1C2CC1[C@@H]2O [Example 228.0, (1S,2S)-N-(4-(2,6-dimethoxyphenyl)-5-(cis-4-hydroxybicyclo[1.1.1]pentan-2-yl)-4H-1,2,4-triazol-3-yl)-1-isopropoxy-1-(5-methylpyrimidin-2-yl)propane-2-sulfonamide and (1S,2S)-N-(4-(2,6-dimethoxyphenyl)-5-(trans-4-hydroxybicyclo[1.1.1]pentan-2-yl)-4H-1,2,4-triazol-3-yl)-1-isopropoxy-1-(5-methylpyrimidin-2-yl)propane-2-sulfonamide]
The EC50 of the first is 45-fold lower: 4.2 nM for the first, 190 nM for the second.

Compared with `COc1cccc(OC)c1-n1c(NS(=O)(=O)[C@@H](C)[C@H](OC)c2ncc(Cl)cn2)nnc1[C@H]1C[C@H](C(F)(F)F)C1` (single isomer, unassigned) [Example 149.0, (1R,2S)-1-(5-chloropyrimidin-2-yl)-N-(4-(2,6-dimethoxyphenyl)-5-((1r,3S)-3-(trifluoromethyl)cyclobutyl)-4H-1,2,4-triazol-3-yl)-1-methoxypropane-2-sulfonamide or (1R,2S)-1-(5-chloropyrimidin-2-yl)-N-(4-(2,6-dimethoxyphenyl)-5-((1s,3R)-3-(trifluoromethyl)cyclobutyl)-4H-1,2,4-triazol-3-yl)-1-methoxypropane-2-sulfonamide], `COc1cccc(OC)c1-n1c(NS(=O)(=O)[C@@H](C)[C@H](C)c2ncc(C)cn2)nnc1C1(c2ccccn2)CC1` [Example 126.0] is 1000-fold higher in EC50: 4.2 nM for the first, 4200 nM for the second. The first is the more potent here.
